What all share (assay type): cell-based
For assay [1], the target named is T1, CDK4 (Homo sapiens, UniProt P11802).
T1 construct: endogenous in cells
Nature of the assay: CDK4 degradation (DC50, Dmax).

The target of assay [2] is T2, CDK6 (Homo sapiens, UniProt Q00534).
T2 construct: endogenous in cells
As to the kind of experiment: CDK6 degradation (DC50, Dmax).

The subject of assay [3] is mantle cell lymphoma cell (Mino or JeKo-1). Nature of the assay: Antiproliferative effect, MTS cell viability assay. The conditions noted are these: 72 h, mantle cell lymphoma cell (Mino or JeKo-1), MTS assay, read-out: IC50 (anti-proliferation). Summed up:
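MTS read-out (formazan absorbance at 490 nm) after 72 h exposure of Mino cells to 0–1 μM compound (0.0001, 0.001, 0.01, 0.1, 1 μM). Palbociclib and abemaciclib served as positive controls.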
(In general: Tetrazolium assays rely on reduction of a dye to a coloured formazan, in cell work by metabolically active cells.)

Here are results for 15 compounds from patent US20230295118A1 (EnhancedBio Inc., priority 2022, published 2023).

In general, DC50 refers to the concentration at which degradation of the target reaches its halfway point. Lower therefore signals a more potent degrader. The term Dmax denotes the greatest extent of degradation seen. Read a high Dmax as deep degradation.

T2 sequence (Q00534 whole entry): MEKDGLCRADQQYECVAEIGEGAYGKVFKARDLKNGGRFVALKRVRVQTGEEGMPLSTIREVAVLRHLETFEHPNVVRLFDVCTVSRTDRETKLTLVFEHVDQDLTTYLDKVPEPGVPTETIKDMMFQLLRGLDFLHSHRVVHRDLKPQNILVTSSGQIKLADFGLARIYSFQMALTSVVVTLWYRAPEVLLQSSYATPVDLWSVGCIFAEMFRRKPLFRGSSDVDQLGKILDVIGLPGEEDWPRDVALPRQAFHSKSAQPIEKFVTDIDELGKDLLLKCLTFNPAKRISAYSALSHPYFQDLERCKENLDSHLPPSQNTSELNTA
T1 sequence (P11802 whole entry): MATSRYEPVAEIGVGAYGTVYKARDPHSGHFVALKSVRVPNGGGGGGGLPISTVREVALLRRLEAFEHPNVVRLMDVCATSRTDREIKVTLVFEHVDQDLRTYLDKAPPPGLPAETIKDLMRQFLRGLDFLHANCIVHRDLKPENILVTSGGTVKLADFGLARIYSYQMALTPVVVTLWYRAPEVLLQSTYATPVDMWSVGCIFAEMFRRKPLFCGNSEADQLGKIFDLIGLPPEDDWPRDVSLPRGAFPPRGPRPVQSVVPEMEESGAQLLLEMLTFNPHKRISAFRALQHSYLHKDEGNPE

Consider `CC(=O)c1c(C)c2cnc(Nc3ccc(N4CCN(CC5CN(c6ccc(N7CCC(=O)NC7=O)cc6)C5)CC4)cn3)nc2n(C2CCCC2)c1=O` [Compound 111, 1-(4-(3-((4-(6-((6-acetyl-8-cyclopentyl-5-methyl-7-oxo-7,8-dihydropyrido[2,3-d]pyrimidin-2-yl)amino)pyridin-3-yl)piperazin-1-yl)methyl)azetidin-1-yl)phenyl) dihydropyrimidine-2,4(1H,3H)-dione], for which, in assay [1], the DC50 is below 50 nM and the Dmax is above 80%. For the same compound, in assay [2], the 50% degradation concentration (DC50) is below 50 nM and the Dmax was above 80%. Besides, the IC50 in assay [3] was below 50 nM.
In the case of `CC(=O)c1c(C)c2cnc(Nc3ccc(N4CCN(CC5CCN(c6ccc(N7CCC(=O)NC7=O)cc6)CC5)CC4)cn3)nc2n(C2CCCC2)c1=O` [Compound 112, 1-(4-(4-((4-(6-((6-acetyl-8-cyclopentyl-5-methyl-7-oxo-7,8-dihydropyrido[2,3-d]pyrimidin-2-yl)amino)pyridin-3-yl)piperazin-1-yl)methyl)piperidin-1-yl)phenyl) dihydropyrimidine-2,4(1H,3H)-dione], the 50% degradation concentration (DC50) in assay [1] is below 50 nM; in assay [2] it was 50 to 200 nM. The Dmax in assay [1] and in assay [2] was above 80% each time. Also, the IC50 in assay [3] was below 50 nM.
In assay [1], `CC(=O)c1c(C)c2cnc(Nc3ccc(N4CCN(C5CCN(c6ccc(N7CCC(=O)NC7=O)cc6)CC5)CC4)cn3)nc2n(C2CCCC2)c1=O` [Compound 113, 1-(4-(4-(4-(6-((6-acetyl-8-cyclopentyl-5-methyl-7-oxo-7,8-dibydropyrido[2,3-d]pyrimidin-2-yl)amino)pyridin-3-yl)piperazin-1-yl)piperidin-1-yi)phenyl) dihydropyrimidine-2,4(1H,3H)-dione] had a DC50 of 50 to 200 nM and a maximal degradation (Dmax) above 80%. For the same compound, in assay [2], the DC50 is below 50 nM and the greatest degradation seen (Dmax) was above 80%. Besides, the IC50 in assay [3] was below 50 nM.
In assay [1], `CC(=O)c1c(C)c2cnc(Nc3ccc(N4CCN(C(=O)C5CCN(c6ccc7c(c6)C(=O)N(C6CCC(=O)NC6=O)C7=O)CC5)CC4)cn3)nc2n(C2CCCC2)c1=O` (stereo not drawn) [Compound 114, 5-(4-(4-(6-((6-acetyl-8-cyclopentyl-5-methyl-7-oxo-7,8-dihydropyrido[2,3-d]pyrimidin-2-yl)amino)pyridin-3-yl)piperazine-1-carbonyl)piperidin-1-yl)-2-(2,6-dioxopiperidin-3-yl) isoindoline-1,3-dione] showed a DC50 of 50 to 200 nM and a Dmax above 80%. Further, in assay [2], the DC50 lay within 50 to 200 nM and the maximal degradation (Dmax) was above 80%. The IC50 in assay [3] was below 50 nM.
With `CC(=O)c1c(C)c2cnc(Nc3ccc(N4CCN(C(=O)C5CCN(c6ccc7c(c6)CN(C6CCC(=O)NC6=O)C7=O)CC5)CC4)cn3)nc2n(C2CCCC2)c1=O` (stereo not drawn) [Compound 115, 3-(5-(4-(4-(6-((6-acetyl-8-cyclopentyl-5-methyl-7-oxo-7,8-dihydropyrido[2,3-d]pyrimidin-2-yl)amino)pyridin-3-yl)piperazine-1-carbonyl)piperidin-1-yl)-1-oxoisoindolin-2-yl)piperidine-2,6-dione], in assay [1], the DC50 fell in the range of 50 to 200 nM and the Dmax is above 60%. In assay [2], this compound had a DC50 of 50 to 200 nM and a maximal degradation (Dmax) above 60%. Moreover, the IC50 in assay [3] is below 50 nM.
For the compound `CC(=O)c1c(C)c2cnc(Nc3ccc(N4CCN(C(=O)C5CCN(c6ccc(C(=O)NC7CCC(=O)NC7=O)cc6)CC5)CC4)cn3)nc2n(C2CCCC2)c1=O` (stereo not drawn) [Compound 116, 4-(4-(4-(6-((6-acetyl-8-cyclopentyl-5-methyl-7-oxo-7,8-dihydropyrido[2,3-d]pyrimidin-2-yl)amino)pyridin-3-yl)piperazine-1-carbonyl)piperidin-1-yl)-N-(2,6-dioxopiperidin-3-yl)benzamide], the DC50 in assay [1] and in assay [2] was 50 to 200 nM throughout. The Dmax in assay [1] and in assay [2] was above 80% throughout. Moreover, the IC50 in assay [3] was 50 to 200 nM.
In assay [1], `CC(=O)c1c(C)c2cnc(Nc3ccc(N4CCN(C(=O)C5CCN(c6ccc(NC7CCC(=O)NC7=O)cc6)CC5)CC4)cn3)nc2n(C2CCCC2)c1=O` (stereo not drawn) [Compound 117, 3-((4-(4-(4-(6-((6-acetyl-8-cyclopentyl-5-methyl-7-oxo-7,8-dihydropyrido[2,3-d]pyrimidin-2-yl)amino)pyridin-3-yl)piperazine-1-carbonyl)piperidin-1-yl)phenyl)amino) piperidine-2,6-dione] returned a 50% degradation concentration (DC50) below 50 nM and a Dmax above 80%. In assay [2], this compound displayed a DC50 of 50 to 200 nM and a Dmax above 60%. For the same compound, the IC50 in assay [3] was below 50 nM.
In assay [1], `CC(=O)c1c(C)c2cnc(Nc3ccc(N4CCN(CC5CN(c6ccc7c(c6)CN(C6CCC(=O)NC6=O)C7=O)C5)CC4)cn3)nc2n(C2CCCC2)c1=O` (stereo not drawn) [Compound 118, 3-(5-(3-((4-(6-((6-acetyl-8-cyclopentyl-5-methyl-7-oxo-7,8-dihydropyrido[2,3-d]pyrimidin-2-yl)amino)pyridin-3-yl)piperazin-1-yl)methyl)azetidio-1-yl)-1-oxoisoindolin-2-yl)piperidine-2,6-dione] came in with a DC50 below 50 nM and a Dmax above 80%. Besides, in assay [2], the 50% degradation concentration (DC50) was below 50 nM and the Dmax was above 80%. Moreover, in assay [3], the IC50 is below 50 nM.
In assay [1], `CC(=O)c1c(C)c2cnc(Nc3ccc(N4CCN(CC5CN(c6ccc(C(=O)NC7CCC(=O)NC7=O)cc6)C5)CC4)cn3)nc2n(C2CCCC2)c1=O` (stereo not drawn) [Compound 119, 4-(3-((4-(6-((6-acetyl-8-cyclopentyl-5-methyl-7-oxo-7,8-dihydropyrido[2,3-d]pyrimidin-2-yl)amino)pyridin-3-yl)piperazin-1-yl)methyl)azetidin-1-yl)-N-(2,6-dioxopiperidin-3-yl)benzamide] returned a DC50 of 50 to 200 nM and a maximal degradation (Dmax) above 80%. Further, in assay [2], the 50% degradation concentration (DC50) lay in the range of 50 to 200 nM and the Dmax was above 80%. In assay [3], the IC50 was below 50 nM.
In assay [1], `CC(=O)c1c(C)c2cnc(Nc3ccc(N4CCN(CC5CN(c6ccc(NC7CCC(=O)NC7=O)cc6)C5)CC4)cn3)nc2n(C2CCCC2)c1=O` (stereo not drawn) [Compound 120, 3-((4-(3-((4-(6-((6-acetyl-8-cyclopentyl-5-methyl-7-oxo-7,8-dihydropyrido[2,3-d]pyrimidin-2-yl)amino)pyridin-3-yl)piperazin-1-yl)methyl)azetidin-1-yl)phenyl)amino) piperidine-2,6-dione] displayed a half-maximal degradation concentration (DC50) below 50 nM and a Dmax above 80%. In assay [2], the DC50 is 50 to 200 nM and the Dmax is above 80%. Also, the IC50 in assay [3] is below 50 nM.
For `CC(=O)c1c(C)c2cnc(Nc3ccc(N4CCN(C(=O)C5CN(c6ccc7c(c6)C(=O)N(C6CCC(=O)NC6=O)C7=O)C5)CC4)cn3)nc2n(C2CCCC2)c1=O` (stereo not drawn) [Compound 121, 5-(3-(4-(6-((6-acetyl-8-cyclopentyl-5-methyl-7-oxo-7,8-dihydropyrido[2,3-d]pyrimidin-2-yl)amino)pyridin-3-yl)piperazine-1-carbonyl)azetidin-1-yl)-2-(2,6-dioxopiperidin-3-yl)isoindoline-1,3-dione], in assay [1], the DC50 is below 50 nM and the Dmax is above 80%. In assay [2], this compound came in with a DC50 below 50 nM and a Dmax above 80%. Further, in assay [3], the IC50 is below 50 nM.
In the case of `CC(=O)c1c(C)c2cnc(Nc3ccc(N4CCN(C(=O)C5CN(c6ccc7c(c6)CN(C6CCC(=O)NC6=O)C7=O)C5)CC4)cn3)nc2n(C2CCCC2)c1=O` (stereo not drawn) [Compound 122, 3-(5-(3-(4-(6-((6-acetyl-8-cyclopentyl-5-methyl-7-oxo-7,8-dihydropyrido[2,3-d]pyrimidin-2-yl)amino)pyridin-3-yl)piperazine-1-carbonyl)azetidin-1-yl)-1-oxoisoindolin-2-yl) piperidine-2,6-dione], in assay [1], the DC50 was below 50 nM and the Dmax was above 80%. In addition, in assay [2], the DC50 is below 50 nM and the Dmax is above 80%. Further, the IC50 in assay [3] was below 50 nM.
`CC(=O)c1c(C)c2cnc(Nc3ccc(N4CCN(C(=O)C5CN(c6ccc(C(=O)NC7CCC(=O)NC7=O)cc6)C5)CC4)cn3)nc2n(C2CCCC2)c1=O` (stereo not drawn) [Compound 123, 4-(3-(4-(6-((6-acetyl-8-cyclopentyl-5-methyl-7-oxo-7,8-dihydropyrido[2,3-d]pyrimidin-2-yl)amino)pyridin-3-yl)piperazine-1-carbonyl)azetidin-1-yl)-N-(2,6-dioxopiperidin-3-yl)benzamide]: the DC50 in assay [1] and in assay [2] was below 50 nM each time. For the same compound, the greatest degradation seen (Dmax) in assay [1] and in assay [2] was above 60% each time. The IC50 in assay [3] is below 50 nM.
Consider `CC(=O)c1c(C)c2cnc(Nc3ccc(N4CCN(C(=O)C5CN(c6ccc(NC7CCC(=O)NC7=O)cc6)C5)CC4)cn3)nc2n(C2CCCC2)c1=O` (stereo not drawn) [Compound 124, 3-((4-(3-(4-(6-((6-acetyl-8-cyclopentyl-5-methyl-7-oxo-7,8-dihydropyrido[2,3-d]pyrimidin-2-yl)amino)pyridin-3-yl)piperazine-1-carbonyl)azetidin-1-yl)phenyl)amino) piperidine-2,6-dione], for which, in assay [1], the DC50 was in the range of 50 to 200 nM and the Dmax was above 80%. In assay [2], this compound showed a DC50 of 50 to 200 nM and a Dmax above 60%. For the same compound, the IC50 in assay [3] was below 50 nM.
As for `CC(=O)c1c(C)c2cnc(Nc3ccc(C4CCN(CC5CN(c6ccc7c(c6)C(=O)N(C6CCC(=O)NC6=O)C7=O)C5)CC4)cn3)nc2n(C2CCCC2)c1=O` (stereo not drawn) [Compound 125, 5-(3-((4-(6-((6-acetyl-8-cyclopentyl-5-methyl-7-oxo-7,8-dihydropyrido[2,3-d]pyrimidin-2-yl)amino)pyridin-3-yl)piperidin-1-yl)methyl)azetidin-1-yl)-2-(2,6-dioxopiperidin-3-yl)isoindoline-1,3-dione], the DC50 in assay [1] and in assay [2] was below 50 nM each time. For the same compound, the maximal degradation (Dmax) in assay [1] and in assay [2] was above 80% in each case. Also, in assay [3], the IC50 was below 50 nM.
